Measured values from US6750224B1, “Antibacterial optically pure benzoquinolizine carboxylic acids, processes, compositions and methods of treatment” (priority 1999, dated 2004).
Converted amounts (≈) assume the structure as drawn. Marks after values point to notes of the source that are not given here.

Assays:
[1] = pH 6.8
MRSA STA-4 = experiment: In-vitro antimicrobial activity test (MIC, NCCLS); assay type: cell-based, Staphylococcus aureus
Source text: (§1) The test method was in accordance with the standard NCCLS protocol.

[2] = tested on: Mupirocin-resistant Staph STA-34; experiment: In-vitro antimicrobial activity test (MIC, NCCLS); assay type: cell-based, Staphylococcus aureus
Source text: as §1

MRSE STE-22 = experiment: In-vitro antimicrobial activity test (MIC, NCCLS); assay type: cell-based, Staphylococcus epidermidis
Source text: as §1

Bacteroides fragilis = experiment: In-vitro antimicrobial activity test (MIC, NCCLS); assay type: cell-based
Source text: as §1

[3] = tested on: Chryseobacterium meningosepticum; experiment: In-vitro antimicrobial activity test (MIC, NCCLS); assay type: cell-based
Source text: as §1

Corynebacterium jeikeium = experiment: In-vitro antimicrobial activity test (MIC, NCCLS); assay type: cell-based
Source text: as §1

[4] = tested on: Enterococcus faecalis ATCC 29212; experiment: In-vitro antimicrobial activity test (MIC, NCCLS); assay type: cell-based
Source text: as §1

Enterococcus faecium = experiment: In-vitro antimicrobial activity test (MIC, NCCLS); assay type: cell-based
Source text: as §1

[5] = tested on: Escherichia coli ATCC 25922; experiment: In-vitro antimicrobial activity test (MIC, NCCLS); assay type: cell-based
Source text: as §1

Haemophilus influenzae = experiment: In-vitro antimicrobial activity test (MIC, NCCLS); assay type: cell-based
Source text: as §1

Mycobacterium avium = experiment: In-vitro antimicrobial activity test (MIC, NCCLS); assay type: cell-based
Source text: as §1

[6] = tested on: Mycobacterium intracellulare; experiment: In-vitro antimicrobial activity test (MIC, NCCLS); assay type: cell-based
Source text: as §1

[7] = tested on: Mycobacterium tuberculosis ATCC 27294; experiment: In-vitro antimicrobial activity test (MIC, NCCLS); assay type: cell-based
Source text: as §1

Propioni bacterium acnes = experiment: In-vitro antimicrobial activity test (MIC, NCCLS); assay type: cell-based
Source text: as §1

Pseudomonas aeruginosa = experiment: In-vitro antimicrobial activity test (MIC, NCCLS); assay type: cell-based
Source text: as §1

Serratia marcescens = experiment: In-vitro antimicrobial activity test (MIC, NCCLS); assay type: cell-based
Source text: as §1

[8] = tested on: Staphylococcus aureus ATCC 25923; experiment: In-vitro antimicrobial activity test (MIC, NCCLS); assay type: cell-based
Source text: as §1

[9] = tested on: Streptococcus pneumoniae ATCC 6303; experiment: In-vitro antimicrobial activity test (MIC, NCCLS); assay type: cell-based
Source text: as §1

Streptococcus pyogenes = experiment: In-vitro antimicrobial activity test (MIC, NCCLS); assay type: cell-based
Source text: as §1

[10] = tested on: Viridans group Streptococci; experiment: In-vitro antimicrobial activity test (MIC, NCCLS); assay type: cell-based
Source text: as §1

P. rettgeri N 1764 = experiment: Effect of pH on potency of fluoroquinolones (MIC at pH 5.5 and 7.0); assay type: cell-based; details: MIC pH 7 vs pH 5.5
Source text: (§2) The test method was in accordance with the standard NCCLS protocol employing test media adjusted at pH 5.5 and 7.0.

Serratia marcescens 2702 = experiment: as above; assay type: cell-based; details: MIC pH 7 vs pH 5.5
Source text: as §2

[11] = tested on: human liver cell-line Hep-G2; experiment: Human liver cell line cytotoxicity assay (Minimum Toxic Dose); assay type: cell-based; details: 3 hours exposure, 4 days incubation, Almar blue
Procedure: The procedure involved cultivation of cells of human liver cell-line Hep-G2 in DMEM medium containing 5% foetal bovine and exposure to various concentrations of trovafloxacin and S-(−)-Nadifloxacin for 3 hours. The drug containing medium was then replaced with a fresh medium and cells were incubated in 5% CO2 atmosphere at 37° C. for 4 days. Almar blue dye which is an indicative of active respiration was then added to individual sample to access the toxicity of the drugs. The hepatotoxic potential of a drug is expressed in terms of Minimum Toxic Dose (MTD) which is defined as minimum concentration of a drug which brings about inhibition of colour change from blue to pink.

in vivo = experiment: in vivo; set-up: species or system Swiss mice; details: mouse
Procedure: The blood levels of RS-(±)-Nadifloxacin and S-(−)-Nadifloxacin administered orally to Swiss mice at a dose of 30mg/kg are shown in Table 3 with respect to the AUC (μg/ml.hr), monitored from 15 minutes to 4 hours.

[12] = tested on: S.aureus strain bearing Nor A efflux pump; assay type: cell-based; details: Nor A efflux pump strain vs strain devoid of efflux pump
Procedure: Using this set of MIC values, % loss in potency due to efflux was calculated for each of the fluoroquinolone in Table 5

[13] = tested on: Gram-positive pathogens such as staphylococci and enterococci, and Gram-negative pathogens such as E.coli, Klebsiella, Proteus, Serratia, Citrobacter, and …; experiment: Antibacterial potency (MIC) at acidic pH of 5.5, summary; assay type: cell-based; details: acidic pH of 5.5, some organisms
[14] = mouse, in vivo
[15] = in vivo
[16] = tested on: Gram-positive and Gram-negative bacteria; details: cited from earlier work
[17] = Acute intravenous toxicity in mice; details: acute intravenous, mice

CC(=O)O.C[C@@H](N)C(=O)OC1CCN(c2c(F)cc3c(=O)c(C(=O)O)cn4c3c2CC[C@@H]4C)CC1 [Example 30, 8-{4-[2(R)-Amino-propionyloxy]piperidin-1-yl}-9-fluoro-5(S)-methyl-6,7-dihydro-1-oxo-1H,5H-benzo[i,j]quinolizine-2-carboxylic acid, acetate]
Water solubility [1]: >250 mg/mL

C[C@H]1CCc2c(N3CCC(O)CC3)c(F)cc3c(=O)c(C(=O)O)cn1c23 [S-(−)-Nadifloxacin, S-(−)-9-fluoro-8-(4-hydroxy-piperidin-1-yl)-5-methyl-6,7-dihydro-1-oxo-1H,5H benzo[i,j]quinolizine-2-carboxylic acid]
MIC (MRSA STA-4): 0.4 µg/mL (≈ 1.11 µM) | MIC [2]: 0.4 µg/mL (≈ 1.11 µM) | MIC (MRSE STE-22): 0.4 µg/mL (≈ 1.11 µM) | MIC (Bacteroides fragilis): 0.8 µg/mL (≈ 2.22 µM) | MIC [3]: 0.8 µg/mL (≈ 2.22 µM) | MIC (Corynebacterium jeikeium): 0.05 µg/mL (≈ 0.139 µM) | MIC [4]: 0.2 µg/mL (≈ 0.555 µM) | MIC (Enterococcus faecium): 0.4 µg/mL (≈ 1.11 µM) | MIC [5]: 0.2 µg/mL (≈ 0.555 µM) | MIC (Haemophilus influenzae): 0.025 µg/mL (≈ 0.0694 µM) | MIC (Mycobacterium avium): 3.12 µg/mL (≈ 8.66 µM) | MIC [6]: 1.56 µg/mL (≈ 4.33 µM) | MIC [7]: 0.8 µg/mL (≈ 2.22 µM) | MIC (Propioni bacterium acnes): 0.1 µg/mL (≈ 0.277 µM) | MIC (Pseudomonas aeruginosa): 1.56 µg/mL (≈ 4.33 µM) | MIC (Serratia marcescens): 0.4 µg/mL (≈ 1.11 µM) | MIC [8]: 0.025 µg/mL (≈ 0.0694 µM) | MIC [9]: 0.2 µg/mL (≈ 0.555 µM) | MIC (Streptococcus pyogenes): 0.2 µg/mL (≈ 0.555 µM) | MIC [10]: 0.2 µg/mL (≈ 0.555 µM) | % change in potency at pH 5.5, loss (−)/gain (+) (P. rettgeri N 1764): 0.00% | % change in potency at pH 5.5, loss (−)/gain (+) (Serratia marcescens 2702): 0.00% | dosage tolerated by Hep-G-2 cells, times higher than trovafloxacin [11]: 4 times | oral bioavailability, times higher than RS-(±)-Nadifloxacin (in vivo): 2 times | AUC (in vivo; po, 30 mg/kg): 33580 ng·h/mL | % loss in potency for S. aureus bearing Efflux pump [12]: 0% | MIC improves by [13]: 100% | acute intravenous toxicity compared with RS-(±)-Nadifloxacin [14]: significantly lower | phototoxicity potential [15]: negligible phototoxicity potential | in-vitro activity compared with racemic Nadifloxacin [16]: approximtely twice as active | LD50 [17]: >400* mg/kg
